Experiments:
FimH-CRD [1] = target: T1, FimH-CRD (Escherichia coli, UniProt P08191); assay: Competitive binding assay by fluorescence polarization, assay 1 (compounds prepared by manual dilution); set-up: species or system E. coli
T1 construct: The first 177 amino acids of the FimH protein are expressed as a fusion protein; thrombin tag (printed as 'fusion protein with thrombin') (cleaved yes); made in house; host or cells: bacteria (pET21b plasmid)
Summary of the method: (§1)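 FimH-CRD (residues 1-177, tag removed) at 60 nM competed against 5 nM Alexa 647 mannoside probe in 50 mM Tris-Cl pH 7.0, 100 mM NaCl, 1 mM EDTA, 5 mM β-mercaptoethanol, 0.05% BSA, 2.5% DMSO; 5 h, room temperature, dark. Compounds 0.4 nM-75 μM final, 12-point 3-fold, duplicate; Kd from fluorescence polarization displacement curves. Assay 1: manual dilution; assay 2: robotic dilution, plates frozen/thawed.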

FimH-CRD [2] = target: T1, FimH-CRD; assay: Competitive binding assay by fluorescence polarization, assay 2 (compounds prepared by a robotics system, plates frozen and thawed); set-up: species or system E. coli
Summary of the method: as §1

Measured: Kd

T1 sequence (P08191 22-177): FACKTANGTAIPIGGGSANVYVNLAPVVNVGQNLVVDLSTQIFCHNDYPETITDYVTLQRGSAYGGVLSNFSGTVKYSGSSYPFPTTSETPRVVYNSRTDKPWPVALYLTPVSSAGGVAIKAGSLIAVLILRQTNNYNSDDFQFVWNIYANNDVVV

OC[C@H]1O[C@H](Cc2ccc(-c3ccc(C[C@H]4O[C@H](CO)[C@@H](O)[C@H](O)[C@@H]4O)cc3)cc2)[C@@H](O)[C@@H](O)[C@@H]1O [Compound 41, ((2R,3S,4R,5S,6R)-2-(Hydroxymethyl)-6-[[4-[4-[[(2R,3S,4R,5S,6R)-3,4,5-trihydroxy-6-(hydroxymethyl)tetrahydropyran-2-yl]methyl]phenyl]phenyl]methyl]tetrahydropyran-3,4,5-triol)]
< 5 nM: FimH-CRD [1]; Assay 1 Kd, 5 nM Alexa 647 mannoside probe, 60 nM FimH-CRD, replicate values in one cell | FimH-CRD [1]; read-out: Assay 1 Kd, 5 nM Alexa 647 mannoside probe, 60 nM FimH-CRD, replicate values in one cell | FimH-CRD [2]; Assay 2 Kd, 5 nM Alexa 647 mannoside probe, 60 nM FimH-CRD, replicate values in one cell | FimH-CRD [2]; read-out: Assay 2 Kd, 5 nM Alexa 647 mannoside probe, 60 nM FimH-CRD, replicate values in one cell

Source: US11634447B2 (priority 2012, dated 2023)
